Experimental data taken from paper PMC9497102, “Thiosemicarbazone Derivatives Developed to Overcome COTI-2 Resistance” (Cancers, 2022).
Marks after values point to notes of the source that are not given here.

Legend:
SW480/Coti cells [1] = experiment: MTT viability assay with ABCB1/ABCC1 inhibitors verapamil and CSA; format: cell-based, human; conditions: 1 µM CSA and 10 µM verapamil, 72 h
Method: For the cytotoxicity, cell viability, and proliferation studies, the 3-(4,5-dimethylthiazol-2-yl)-2,5-diphenyltetrazolium bromide (MTT) assay was utilized. Cells were seeded in 96-well plates at a density of 2 × 10^4 cells/well, with the exception of SW480/Tria, which was used at a density of 3 × 10^4 cells/well. After 24 h of recovery, cells were treated with the indicated concentration of drugs. For the drug combination experiments, verapamil and cyclosporine A (CSA) were used as […] modulators, and tetrathiomolybdate (TTM) was used as a copper chelator. The TSCs were dissolved in DMSO followed by subsequent dilutions in the medium in order to maintain a final DMSO concentration of <1%. After 72 h, the treatment solution was removed and replaced with 100 µL of MTT solution (EZ4U, Biomedica, Vienna, Austria), which was diluted 1:10 in the growth medium. A TECAN Infinite 200 Pro plate reader was used to measure the absorbance of the solution after 2–3 h incubation at 5% CO2 in an incubator at 37 °C. The anticancer activity was determined with GraphPad Prism software and indicated as IC50 values (half maximum inhibitory concentration).

[2] = Parallel artificial membrane permeability assay (PAMPA); format: in vitro ADME; conditions: pH 7.4, 25 °C, read-out: Peff
Method: The thermodynamic solubility of COTI-NMeCy, COTI-Nme2, COTI-NH2, and COTI-2 was measured for the saturated solutions in water at pH 7.4 (20 mM HEPES buffer) at 25.0 ± 0.1 °C. The concentrations of the compounds were determined by UV-vis spectrophotometry using stock solutions of the compounds with known concentrations dissolved in pure DMSO, and 50% and 1% (v/v) DMSO/buffered aqueous solution for the calibration. The parallel artificial membrane permeability assay (PAMPA) was applied for the ligands with a Corning Gentest pre-coated PAMPA Plate System. Peff values were calculated according to the equation reported by Yu et al..

SW480 cells = experiment: Detection of paraptotic vesicles (phase contrast microscopy); format: cell-based, human; conditions: 24 h
Method: SW480 and SW480/Coti cells were seeded at a density of 2 × 10^4 per well in 24-well plates and left to recover for 24 h. This was followed by drug treatment at the indicated concentration for 24 h. Images were captured with phase contrast using a Nikon eclipse Ti-e fluorescence microscope and a DS Fi1c camera. Cells containing vesicles were counted in ImageJ and plotted in GraphPad Prism as the percentage of all cells.

SW480/Tria cells = system: SW480/Tria cells; design: method as in PMID 33190481; conditions: 72 h, MTT; cited from earlier work
SW480/Coti cells [3] = system: SW480/Coti cells; design: method as in PMID 33190481; conditions: 72 h, MTT; cited from earlier work
[4] = system: GLC-4/adr cells (ABCC1-overexpressing); design: method as in PMID 33190481; conditions: cited from earlier work
GLC-4 cells = system: GLC-4 cells; design: method as in PMID 33190481; conditions: 72 h, MTT; cited from earlier work

Papp [2]	SMILES	impact of verapamil and CSA on activity (SW480/Coti cells [1])	cells presenting paraptotic features (SW480 cells; 0.1 µM)	cells presenting paraptotic features (SW480 cells; 1 µM)	IC50 (SW480/Tria cells)	IC50 (SW480/Coti cells [3])	IC50 ([4]; 72 h, MTT)	Relative Resistance GLC-4/adr ([4]; IC50 of GLC-4/adr divided by IC50 of parental GLC-4)	IC50 (GLC-4 cells)
16 ± 0.1 ×10⁻⁶ cm/s	CN(C)C(=S)NN=C1CCCc2cccnc21 (mixture of isomers) [COTI-NMe2, 2-(6,7-Dihydroquinolin-8(5H)-ylidene)-N^4,N^4-dimethylhydrazine-1-carbothioamide]	no relevant impact	100%	100%	–	–	–	–	–
–	S=C(N/N=C1\CCCc2cccnc21)N1CCN(c2ccccn2)CC1 [COTI-2, 4-(pyridine-2-yl)-N-([(8E)-5,6,7,8-tetrahydroquinolin-8-ylidene]amino)piperazine-1-carbothioamide]	–	–	–	410 ± 160 nM	9510 ± 3110 nM	480 ± 150 nM	17.3 *	30 ± 10 nM
